{"source": "patent US5599904A", "about": "“Chimeric steroid hormone superfamily receptor proteins” (priority 1992, dated 1997)", "key": {"[1]": {"target": "T1, chimeric receptor hRGR (human retinoic acid receptor with hGR DNA-binding domain) (Homo sapiens, UniProt P10276, INS60IETQSSSSEEIVPSPPSPPPLPRPPKLCLVCSDEASGCHYGVLTCGSCKVFFKRAVEGQHNYLCAGRNDCIIDKIRRKNCPACRYRKCLQAGMNLES)", "T1 construct": "expressed in transfected cells; host or cells: CV-1 (African Green monkey kidney) cells, cotransfected with pRShRGR and pMTVCAT", "T1 sequence (P10276 with tags, fused parts or gaps isoform P10276-3 INS60IETQSSSSEEIVPSPPSPPPLPRPPKLCLVCSDEASGCHYGVLTCGSCKVFFKRAVEGQHNYLCAGRNDCIIDKIRRKNCPACRYRKCLQAGMNLES)": "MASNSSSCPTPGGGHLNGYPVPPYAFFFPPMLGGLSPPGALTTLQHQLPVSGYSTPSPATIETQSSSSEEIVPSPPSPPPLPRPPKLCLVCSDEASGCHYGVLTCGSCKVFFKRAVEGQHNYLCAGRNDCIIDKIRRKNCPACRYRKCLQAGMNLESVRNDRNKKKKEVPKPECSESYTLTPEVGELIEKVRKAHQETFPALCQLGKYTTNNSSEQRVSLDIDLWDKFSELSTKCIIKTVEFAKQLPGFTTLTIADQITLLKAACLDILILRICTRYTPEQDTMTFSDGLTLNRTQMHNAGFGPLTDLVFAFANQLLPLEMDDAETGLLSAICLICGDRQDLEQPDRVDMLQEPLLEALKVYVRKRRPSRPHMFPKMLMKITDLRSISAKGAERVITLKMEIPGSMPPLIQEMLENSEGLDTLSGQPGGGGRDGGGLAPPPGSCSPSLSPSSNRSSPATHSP", "experiment": "Functional ligand identification assay: CAT induction in CV-1 cells cotransfected with pRShRGR and MTV-CAT", "format": "cell-based", "settings": "for Induction of CAT activity of the hybrid receptor by natural and synthetic non-retinoid ligands: pRShRGR + pMTVCAT, single 1 μM dose (FIG. 3A legend); for Induction of CAT activity of the hybrid receptor (in words): pRShRGR + MTV-CAT, FIG. 2B at 100 nM, FIG. 3A increasing concentrations", "excerpt": "Since the ligand for the gene product of phRAR1 was unknown, it was desirable to develop a quick and sensitive assay to reveal its identity. […] This chimera recognizes the glucocorticoid responsive element of the MMTV-LTR but stimulates transcription in an estrogen-dependent fashion (see Green, et al., (1987)). This led us to wonder if a general domain-swapping strategy could be exploited to identify the ligand-binding properties of a novel hormone receptor. To test this approach we first substituted the DNA-binding domain of the phRAR1 gene product with the well described DNA-binding domain from the hGR (FIG. 2A). (This chimeric construction, when expressed in suitable host cells, produces a hybrid receptor protein whose ligand-binding domain region must bind with a functional exogenous ligand before the ligand/receptor complex can bind to a GRE, thereby activating a glucocorticoid inducible promoter.)\nTo assay for the presence of a functional ligand the chimeric receptor gene was transfected into suitable host cells along with a suitable GRE linked reporter gene. CV-1 cells were used for the assay along with a MMTV-CAT reporter gene. (MMTV-CAT is carried on reporter plasmid, GM-CAT, which has been deposited with the American Type Culture Collection for patent purposes; see the section of this specification labeled, \"Deposits\"). […] For example, the growth hormone promoter can be functionally linked to the bacterial CAT gene. Since the growth hormone promoter contains a thyroid responsive transcription element, such a reporter plasmid can be used to assay hybrid thyroid receptor proteins. See the subheading: \"Construction of Reporter and Expression Plasmids\" in this specification. (Since mineralocorticoid receptors can activate GRE's, a reporter plasmid such as GM-CAT can be used to assay hybrid mineralocorticoid receptor proteins.)\nReturning to the functional ligand identification assay, the transfected cells were then systematically challenged with a battery of candidate ligands and induction monitored by changes in CAT activity.\n(§1) FIGS. 2A and 2B. 2A, Construction of the chimeric receptor hRGR. The domain-structure of the various constructions are shown schematically, the numbers correspond to the amino acid positions of each domain. The DNA-binding domains are represented by \"DNA\" and the ligand-binding domains by their respective inducers. The Nor1 and Xho1 sites created by site-directed mutagenesis to permit the exchange of the DNA-binding domains between receptors are indicated.\n(§2) Methods. […] The mutant receptors were then transferred to the expression vector pRS (see Giguere, et al., (1986), and the Not1/Xho1 restriction fragment of pRShGRNX containing the hGR DNA-binding domain was introduced into pRShRnx between the Not1 and Xho1 sites to create pRShRGR. B, Cell transfection and CAT assay. The recombinant DNA constructs (5 μg each) were introduced into CV-1 cells by calcium phosphate coprecipitation (see Wigler, et al., (1979)). The cells were then cultured for two days in serum free media supplemented with Nutridoma (Boehringer Mannheim) in presence or absence of inducers. CV-1 cells were then prepared for CAT assays as described by Gorman, et al. (1982) and the assays performed for 3 h using 25 μg of protein extract. All experiments with retinol were conducted in subdued light.\n(§3) FIGS. 3A and 3B. 3A, Dose-response to retinoids. […] The levels of CAT activity were plotted as percentages of the maximal response observed in this experiment. […] The values represent the mean of quadruplicate determinations.\nMethods. 3A, CV-1 cell cotransfections and CAT assays were performed as described in FIG. 2."}, "[2]": {"test_system": "beta thyroid hormone receptor (hTRβ)", "settings": "CV-1 cells, absence or presence of T3 (data not shown)"}, "[3]": {"test_system": "alpha thyroid hormone receptor (rTRα)", "settings": "CV-1 cells, absence or presence of T3 (data not shown)"}, "[4]": {"test_system": "hybrid receptors with an hTRβ carboxyl terminus", "experiment": "Hybrid thyroid/glucocorticoid receptor CAT assay, hybrids with hTRβ carboxyl terminus", "format": "cell-based, human", "settings": "CV-1 cells, FIG. 9", "procedure": "CV-1 cells were used as the receptor-deficient host cells that were transfected with expression plasmids that carry the chimeric RR/TR receptors, and reporter plasmids carrying the CAT reporter gene. […] Acetylated and non-acetylated forms of [^14 C]chloramphenicol were separated by thin layer chromatography, excised, and quantitated by liquid scintillation counting in Econofluor (DuPont) with 5% DMSO. β-galactosidase assays were performed as described by Herbomel et al. (1984). CAT activity is expressed as percent conversion divided by β-galactosidase activity."}, "[5]": {"target": "T2, phRAR1 gene product (human retinoic acid receptor) (Homo sapiens, UniProt P10276)", "T2 sequence (P10276 1-462)": "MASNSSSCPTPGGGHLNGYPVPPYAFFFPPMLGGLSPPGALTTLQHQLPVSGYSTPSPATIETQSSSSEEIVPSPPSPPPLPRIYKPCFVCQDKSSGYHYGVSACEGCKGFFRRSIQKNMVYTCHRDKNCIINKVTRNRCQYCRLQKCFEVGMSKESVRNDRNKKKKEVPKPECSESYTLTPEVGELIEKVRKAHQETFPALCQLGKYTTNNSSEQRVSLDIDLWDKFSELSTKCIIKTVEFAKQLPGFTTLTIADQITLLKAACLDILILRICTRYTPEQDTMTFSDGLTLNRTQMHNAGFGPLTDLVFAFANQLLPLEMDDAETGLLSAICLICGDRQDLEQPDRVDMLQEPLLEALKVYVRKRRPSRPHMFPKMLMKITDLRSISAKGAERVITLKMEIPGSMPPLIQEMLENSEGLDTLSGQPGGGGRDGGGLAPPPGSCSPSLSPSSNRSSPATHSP", "experiment": "3H-retinoic acid binding to cytosol extracts of COS-1 cells transfected with pRShRR", "settings": "for Competition of 3H-retinoic acid binding: cytosol of transfected COS-1 cells, 2×10^-8 M 3H-retinoic acid, 1000-fold excess (2×10^-5 M) competitor, 4° C., 16 h", "method": "as §3\nMethods. 3A, CV-1 cell cotransfections and CAT assays were performed as described in FIG. 2. […] All other products were diluted in ethanol and control cultures received 0.1% solvent (v/v) in media. Dose-response curves of retinoid treatment were performed in triplicate. 3B, Subconfluent COS-1 cells were transfected with 10 μg/dish of a control plasmid (pRS) or pRShRR by the DEAE-Dextran method (see Deans, et al., (1984)). Cells were maintained for 2 days in DMEM with 5% charcoal-treated fetal calf serum, then harvested in TNE (40 mM tris-HCl pH 7.5, 150 mM NaCl, 1 mM EDTA) and lysed by Dounce homogenization in hypotonic buffer (50 mM tris-HCl pH 7.4, 0.1 mM EDTA, 5 mM dithiothreitol,10 mM NaMoO4, 10% glycerol, 0.5 mM phenylmethylsulfonyl fluoride) and centrifuged at 100,000×g for 30 min to yield the cytosol fraction. […] Specific binding was measured by the addition of 2×10^-5 M of competitors. Reactions were carried out at 4° C. for 16 h. […] Reactions were placed on filters for 1 min and then rinsed with 5 ml of washing buffer (50 mM tris-HCl pH 7.4, 0.1 mM EDTA, 0.1% Triton X-100). Filters were dried and counted by liquid scintillation spectrophotometry."}, "[6]": {"test_system": "human glucocorticoid receptor (hGR)", "experiment": "CAT induction in CV-1 cells cotransfected with pRShGR and MTV-CAT", "format": "cell-based", "settings": "pRShGR + MTVCAT, 100 nM, 2 days", "excerpt": "as §1, §2"}, "[7]": {"test_system": "human retinoic acid receptor (hRARα)", "experiment": "CAT induction in CV-1 cells cotransfected with pRShRR and MTV-CAT", "format": "cell-based", "settings": "pRShRR + MTVCAT, 100 nM, 2 days", "excerpt": "as §1, §2"}, "[8]": {"test_system": "mutated human retinoic acid receptor with Not1 and Xho1 sites (pRShRRNX)", "experiment": "CAT induction in CV-1 cells cotransfected with parent vector pRShRRNX and MTV-CAT", "format": "cell-based", "settings": "pRShRRNX + MTVCAT, 100 nM, 2 days", "excerpt": "as §1, §2"}}}
{"compound": "C[C@H](CCCC(C)(C)O)[C@H]1CC[C@H]2[C@@H]3CC=C4C[C@@H](O)CC[C@]4(C)[C@H]3CC[C@]12C", "note": "[25-OH-cholesterol]", "values": [{"measurement": "Induction of CAT activity of the hybrid receptor by natural and synthetic non-retinoid ligands", "setting": "[1]", "value": "failed to induce CAT activity"}]}
{"compound": "N[C@@H](Cc1cc(I)c(Oc2ccc(O)c(I)c2)c(I)c1)C(=O)O", "note": "[T3, 3,5,3'-triiodo-L-thyronine]", "values": [{"measurement": "Activation of transcription from MTV-CAT (no TRE)", "setting": "[2]", "value": "neither the alpha nor the beta thyroid hormone receptor activates transcription"}, {"measurement": "Activation of transcription from MTV-CAT (no TRE)", "setting": "[3]", "value": "neither the alpha nor the beta thyroid hormone receptor activates transcription"}, {"measurement": "Activation of hybrid receptors by hormone", "setting": "[4]", "value": "activated"}]}
{"compound": "N[C@@H](Cc1cc(I)c(Oc2cc(I)c(O)c(I)c2)c(I)c1)C(=O)O", "note": "[T4, thyroxine]", "values": [{"measurement": "Induction of CAT activity of the hybrid receptor by natural and synthetic non-retinoid ligands", "setting": "[1]", "value": "failed to induce CAT activity"}]}
{"compound": "C=C1CC[C@H](O)C/C1=C/C=C1\\CCC[C@]2(C)[C@@H]([C@H](C)CCCC(C)C)CC[C@@H]12", "note": "[Vitamin D3]", "values": [{"measurement": "Induction of CAT activity of the hybrid receptor by natural and synthetic non-retinoid ligands", "setting": "[1]", "value": "failed to induce CAT activity"}, {"measurement": "Competition of 3H-retinoic acid binding", "setting": "[5]", "value": "did not compete"}]}
{"compound": "C[C@]12CCC(=O)C=C1CC[C@@H]1[C@@H]2[C@@H](O)C[C@]2(C=O)[C@@H](C(=O)CO)CC[C@@H]12", "note": "[aldosterone]", "values": [{"measurement": "Induction of CAT activity of the hybrid receptor by natural and synthetic non-retinoid ligands", "setting": "[1]", "value": "failed to induce CAT activity"}]}
{"compound": "C[C@]12CCC(=O)C=C1CC[C@@H]1[C@@H]2[C@@H](O)C[C@@]2(C)[C@H]1CC[C@]2(O)C(=O)CO", "note": "[cortisol]", "values": [{"measurement": "Induction of CAT activity of the hybrid receptor by natural and synthetic non-retinoid ligands", "setting": "[1]", "value": "failed to induce CAT activity"}]}
{"compound": "C[C@]12CCC(=O)C[C@@H]1CC[C@@H]1[C@@H]2CC[C@]2(C)[C@@H](O)CC[C@@H]12", "note": "[dihydrotestosterone]", "values": [{"measurement": "Induction of CAT activity of the hybrid receptor by natural and synthetic non-retinoid ligands", "setting": "[1]", "value": "failed to induce CAT activity"}]}
{"compound": "CC(=O)[C@H]1CC[C@H]2[C@@H]3CCC4=CC(=O)CC[C@]4(C)[C@H]3CC[C@]12C", "note": "[progesterone]", "values": [{"measurement": "Induction of CAT activity of the hybrid receptor by natural and synthetic non-retinoid ligands", "setting": "[1]", "value": "failed to induce CAT activity"}]}
{"compound": "CC1=C(/C=C/C(C)=C/C=C/C(C)=C/C(=O)O)C(C)(C)CCC1", "note": "[retinoic acid]", "values": [{"measurement": "Induction of CAT activity of the hybrid receptor (in words)", "setting": "[1]", "value": "dramatic increase in CAT activity"}, {"measurement": "Induction of hGR (CAT activity)", "setting": "[6]", "value": "not induced"}, {"measurement": "Effect upon CAT activity using wild type gene product hRARα", "setting": "[7]", "value": "No effect upon CAT activity"}, {"measurement": "Competition of 3H-retinoic acid binding", "setting": "[5]", "value": "fully competed"}, {"measurement": "Effect upon CAT activity using parent vector pRShRRNX", "setting": "[8]", "value": "No effect upon CAT activity"}]}
{"compound": "CC1=C(/C=C/C(C)=C/C=C/C(C)=C/CO)C(C)(C)CCC1", "note": "[retinol]", "values": [{"measurement": "Induction of CAT activity of the hybrid receptor (in words)", "setting": "[1]", "value": "weak agonist"}, {"measurement": "Competition of 3H-retinoic acid binding", "setting": "[5]", "value": "only partially"}]}
{"compound": "CCCCCCCCCCCCCCCC(=O)OC/C=C(C)/C=C/C=C(C)/C=C/C1=C(C)CCCC1(C)C", "note": "[retinyl palmitate]", "values": [{"measurement": "Induction of CAT activity of the hybrid receptor (in words)", "setting": "[1]", "value": "even weaker inducers"}]}
{"compound": "C[C@]12CC[C@H]3[C@@H](CCC4=CC(=O)CC[C@@]43C)[C@@H]1CC[C@@H]2O", "note": "[testosterone]", "values": [{"measurement": "Induction of CAT activity of the hybrid receptor by natural and synthetic non-retinoid ligands", "setting": "[1]", "value": "failed to induce CAT activity"}]}
{"compound": "^3 H-retinoic acid", "values": [{"measurement": "Specific binding of 3H-retinoic acid by transfected cells", "setting": "[5]; COS-1 cells transfected with pRShRR versus control plasmid pRS", "value": "increased capacity to specifically bind"}]}
{"compound": "estrogen", "values": [{"measurement": "Induction of CAT activity of the hybrid receptor by natural and synthetic non-retinoid ligands", "setting": "[1]", "value": "failed to induce CAT activity"}]}
